Reference: patent publication US20180273528A1 (LES LABORATOIRES SERVIER, priority 2015, published 2018)

What was measured:
[1] = biological target: T1, His-TEV-DYRK1A Kinase domain (aa127-485) (Homo sapiens, UniProt Q13627); experiment: Kinase ADP assay (ADP Hunter), DYRK1A kinase domain; assay type: biochemical; details: 20 μM ATP
T1 construct: His-TEV-DYRK1A Kinase domain (aa127-485); His tag (N); TEV protease cleavage site (N)
Outline: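 Compounds incubated 10 min at 30 °C with 20 nM enzyme, 40 μM peptide substrate and 20 μM ATP in pH 7.4 Hepes buffer with 10 mM MgCl2. ADP formed detected by ADP Hunter Plus reagents after 20 min at 30 °C, fluorescence read at 590 nm.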

CLK1 = biological target: T2, CLK1 (Homo sapiens, UniProt P49759); experiment: Kinase TR-FRET assay, CLK1; assay type: biochemical; details: full-length human kinase, 10 μM ATP
T2 construct: full-length human kinases from Carna Biosciences; purchased Carna Biosciences 04-126
Protocol: Inhibition of the enzymatic activity of human kinases was evaluated in a Time-Resolved Fluorescence Resonance Energy Transfer (TR-FRET) assay in 384-well reaction plates. […] Test compounds of the invention were added in reaction buffer at a range of concentrations from 0.1 nM to 30 μM. Following addition of EDTA (Sigma E7889, 10 mM) to stop the reaction, Europium-labelled mouse monoclonal antibody recognizing phospho-Thr232 in MBP (Perkin Elmer TRF0201, 1 nM) was added.

DYRK1A [2] = biological target: T3, DYRK1A (Homo sapiens, UniProt Q13627); experiment: Kinase TR-FRET assay, DYRK1A; assay type: biochemical; design: full-length, wild-type human DYRK1A (NM_001396) with an HA tag; expressed in transfected cells; host or cells: human U2-OS osteosarcoma cells, transient transfection of a pcDNA3.1 plasmid; details: full-length human kinase, 10 μM ATP
Outline: (§1)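 Compounds tested at 0.1 nM to 30 μM in reaction buffer; reaction stopped with 10 mM EDTA. Phosphorylated MBP detected with 1 nM Europium-labelled anti-phospho-Thr232 antibody by TR-FRET.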

CDK9 = biological target: T4, CDK9 (Homo sapiens, UniProt P50750); experiment: Kinase TR-FRET assay, CDK9; assay type: biochemical; details: full-length human kinase, 10 μM ATP
T4 construct: full-length human kinases from Carna Biosciences; purchased Carna Biosciences 04-110
Outline: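 Full-length human CDK9 (0.9 ng/μl) incubated 100 min at room temperature with 10 μM ATP, 100 nM ULight-MBP peptide and compound (0.1 nM–30 μM) in 50 mM HEPES pH 7.4, 1 mM EGTA, 10 mM MgCl2, 2 mM DTT, 0.01% Tween20. Stopped with 10 mM EDTA, then 1 nM Eu-anti-phospho-Thr232 MBP antibody added for 1 h. TR-FRET read at 665/620 nm with 340 nm excitation.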

DYRK1A [3] = biological target: T3, DYRK1A; experiment: Cellular DYRK1 autophosphorylation assay in U2-OS cells; assay type: cell-based; design: full-length, wild-type human DYRK1A (NM_001396) with an HA tag; expressed in transfected cells; host or cells: human U2-OS osteosarcoma cells, transient transfection of a pcDNA3.1 plasmid; details: U2-OS cells transfected with HA-tagged human DYRK1A, 5 hours exposure; read-out: IC50 (μM) P-Ser520-Dyrk1A -Cell assay
Outline: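 U2-OS cells treated with a compound concentration range for 5 h. Phospho-Ser520-DYRK1A measured by western blot densitometry or Mesoscale ELISA. IC50 from dose-response curves; for blots, ratio of phospho-Ser520 to total DYRK1A signal.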

DYRK1B = biological target: T5, DYRK1B (Homo sapiens, UniProt Q9Y463); experiment: Kinase TR-FRET assay, DYRK1B; assay type: biochemical; details: full-length human kinase, 10 μM ATP
T5 construct: full-length human kinases from Carna Biosciences; purchased Carna Biosciences 04-131
Outline: as §1

T5 sequence (Q9Y463 whole entry): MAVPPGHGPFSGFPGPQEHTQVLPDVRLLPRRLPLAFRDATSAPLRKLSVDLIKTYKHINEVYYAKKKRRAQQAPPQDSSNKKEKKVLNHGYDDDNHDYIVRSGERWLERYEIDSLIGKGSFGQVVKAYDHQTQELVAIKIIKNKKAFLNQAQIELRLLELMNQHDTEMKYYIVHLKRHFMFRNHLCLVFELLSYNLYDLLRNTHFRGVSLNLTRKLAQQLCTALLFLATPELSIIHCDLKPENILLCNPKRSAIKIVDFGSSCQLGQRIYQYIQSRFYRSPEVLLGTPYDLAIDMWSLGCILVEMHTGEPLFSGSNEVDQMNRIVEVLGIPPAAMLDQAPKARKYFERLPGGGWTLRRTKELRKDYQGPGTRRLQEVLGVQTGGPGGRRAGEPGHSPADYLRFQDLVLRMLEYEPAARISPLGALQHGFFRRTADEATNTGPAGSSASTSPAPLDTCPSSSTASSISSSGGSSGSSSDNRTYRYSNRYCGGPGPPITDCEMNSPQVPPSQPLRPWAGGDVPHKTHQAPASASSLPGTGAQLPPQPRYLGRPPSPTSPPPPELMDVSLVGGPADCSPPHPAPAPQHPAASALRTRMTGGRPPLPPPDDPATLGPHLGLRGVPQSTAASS
T4 sequence (P50750 whole entry): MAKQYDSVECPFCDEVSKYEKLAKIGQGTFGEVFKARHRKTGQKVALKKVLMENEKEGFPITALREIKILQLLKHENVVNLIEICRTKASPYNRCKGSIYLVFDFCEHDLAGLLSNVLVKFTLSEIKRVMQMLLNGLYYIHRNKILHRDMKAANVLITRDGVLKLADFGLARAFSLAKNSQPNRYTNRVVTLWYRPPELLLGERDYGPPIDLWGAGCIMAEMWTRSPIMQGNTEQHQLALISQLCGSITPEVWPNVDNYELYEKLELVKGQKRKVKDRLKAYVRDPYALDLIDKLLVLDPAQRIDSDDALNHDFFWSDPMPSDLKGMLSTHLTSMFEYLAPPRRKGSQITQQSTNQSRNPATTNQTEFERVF
T4 sequence (O60563 whole entry partner): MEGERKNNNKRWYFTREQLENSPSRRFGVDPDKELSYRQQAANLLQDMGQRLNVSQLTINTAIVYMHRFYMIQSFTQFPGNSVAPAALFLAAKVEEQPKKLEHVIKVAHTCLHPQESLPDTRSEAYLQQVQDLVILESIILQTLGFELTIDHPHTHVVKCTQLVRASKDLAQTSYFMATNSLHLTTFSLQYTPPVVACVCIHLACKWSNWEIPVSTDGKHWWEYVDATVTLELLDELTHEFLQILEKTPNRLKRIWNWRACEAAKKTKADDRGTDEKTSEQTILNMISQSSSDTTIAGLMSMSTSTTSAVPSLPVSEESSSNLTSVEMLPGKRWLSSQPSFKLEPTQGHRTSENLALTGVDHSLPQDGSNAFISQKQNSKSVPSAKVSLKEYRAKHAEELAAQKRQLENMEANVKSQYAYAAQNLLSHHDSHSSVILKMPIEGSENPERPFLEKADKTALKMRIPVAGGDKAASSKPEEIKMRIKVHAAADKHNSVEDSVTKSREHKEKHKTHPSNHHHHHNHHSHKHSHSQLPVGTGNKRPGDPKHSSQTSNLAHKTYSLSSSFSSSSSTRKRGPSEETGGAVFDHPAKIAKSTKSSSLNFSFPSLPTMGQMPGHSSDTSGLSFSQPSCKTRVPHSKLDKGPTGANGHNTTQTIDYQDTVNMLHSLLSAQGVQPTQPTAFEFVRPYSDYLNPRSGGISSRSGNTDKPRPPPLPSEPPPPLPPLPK
T2 sequence (P49759 1-526 isoform P49759-3): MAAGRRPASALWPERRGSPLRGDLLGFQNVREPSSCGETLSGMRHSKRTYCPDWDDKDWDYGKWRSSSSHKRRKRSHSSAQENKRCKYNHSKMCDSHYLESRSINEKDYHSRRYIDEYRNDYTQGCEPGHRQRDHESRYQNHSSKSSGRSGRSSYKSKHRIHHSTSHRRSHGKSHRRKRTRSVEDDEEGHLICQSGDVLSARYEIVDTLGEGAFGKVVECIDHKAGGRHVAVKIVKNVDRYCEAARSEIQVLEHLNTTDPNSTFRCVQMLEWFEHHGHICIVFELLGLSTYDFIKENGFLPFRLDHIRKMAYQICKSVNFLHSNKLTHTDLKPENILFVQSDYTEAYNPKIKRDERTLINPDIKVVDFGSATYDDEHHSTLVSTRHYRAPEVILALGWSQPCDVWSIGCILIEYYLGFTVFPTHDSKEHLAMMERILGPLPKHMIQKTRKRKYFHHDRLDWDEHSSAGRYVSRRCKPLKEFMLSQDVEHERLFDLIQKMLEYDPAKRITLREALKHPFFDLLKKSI

SMILES | IC50 [1] | IC50 (CLK1) | IC50 (DYRK1A [2]) | IC50 (CDK9) | IC50 (DYRK1A [3]) | IC50 (DYRK1B)
Cc1nc2ccc(-c3cc(N)nc(N)c3)nc2n1C[C@@H](C)Oc1cccc(F)n1 (single isomer, unassigned) [Example 189] | 0.013 µM | 0.017 µM | 0.007 µM | 0.339 µM | 0.026 µM | 0.007 µM
C=CCCn1c(C)nc2ccc(-c3cc(N)nc(N)c3)nc21 [Example 14, 4-[3-(but-3-en-1-yl)-2-methyl-3H-imidazo[4,5-b]pyridin-5-yl]pyridine-2,6-diamine] | 0.008 µM | 0.016 µM | 0.002 µM | 1.95 µM | 0.05 µM | 0.001 µM
Cc1nc2ccc(-c3cc(N)nc(N)c3)nc2n1C1CCC1 [Example 23, 4-(3-cyclobutyl-2-methyl-3H-imidazo[4,5-b]pyridin-5-yl)pyridine-2,6-diamine] | 0.006 µM | 0.012 µM | 0.002 µM | 0.57 µM | 0.017 µM | 0.008 µM
COc1ccc2c(c1)CC(n1c(C)nc3ccc(-c4cc(N)nc(N)c4)nc31)C2 (stereo not drawn) [Example 98, 4-[3-(5-methoxy-2,3-dihydro-1H-inden-2-yl)-2-methyl-3H-imidazo[4,5-b]pyridin-5-yl]pyridine-2,6-diamine] | 0.007 µM | 0.015 µM | 0.004 µM | – | 0.019 µM | 0.009 µM
Cc1nc2ccc(-c3cc(N)nc(N)c3)nc2n1CCC(F)(F)F [Example 108, 4-[2-methyl-3-(3,3,3-trifluoropropyl)-3H-imidazo[4,5-b]pyridin-5-yl]pyridine-2,6-diamine] | 0.017 µM | 0.026 µM | – | – | 0.109 µM | –
CCCCc1nc2ccc(-c3cc(N)nc(N)c3)nc2n1C1CCCC1 [Example 145, 4-(2-butyl-3-cyclopentyl-3H-imidazo[4,5-b]pyridin-5-yl)pyridine-2,6-diamine] | 0.03 µM | 0.115 µM | – | – | 0.171 µM | –
CCCCn1c(CCC)nc2ccc(-c3cc(N)nc(N)c3)nc21 [Example 161, 4-(3-butyl-2-propyl-3H-imidazo[4,5-b]pyridin-5-yl)pyridine-2,6-diamine] | 0.02 µM | 0.218 µM | – | > 10 µM | 0.143 µM | 0.005 µM
COc1cccc(OCCn2c(C)nc3ccc(-c4cc(N)nc(N)c4)nc32)c1 [Example 202, 4-{3-[2-(3-methoxyphenoxy)ethyl]-2-methyl-3H-imidazo[4,5-b]pyridin-5-yl}pyridine-2,6-diamine] | 0.023 µM | 0.018 µM | – | – | 0.18 µM | –
CCn1c(C#N)nc2ccc(-c3cc(N)nc(N)c3)nc21 [Example 223, 5-(2,6-diaminopyridin-4-yl)-3-ethyl-3H-imidazo[4,5-b]pyridine-2-carbonitrile] | 0.009 µM | 0.02 µM | – | – | 0.097 µM | –
N#Cc1nc2ccc(-c3cc(N)nc(N)c3)nc2n1C1CC1 [Example 224, 3-cyclopropyl-5-(2,6-diaminopyridin-4-yl)-3H-imidazo[4,5-b]pyridine-2-carbonitrile] | 0.009 µM | 0.02 µM | – | – | 0.057 µM | –
Cn1c(C#N)nc2ccc(-c3cc(N)nc(N)c3)nc21 [Example 227, 5-(2,6-diaminopyridin-4-yl)-3-methyl-3H-imidazo[4,5-b]pyridine-2-carbonitrile] | 0.01 µM | 0.042 µM | – | – | 0.262 µM | –

Next, values leading:

IC50 [1] | IC50 (CLK1) | IC50 (DYRK1A [2]) | IC50 (CDK9) | IC50 (DYRK1A [3]) | IC50 (DYRK1B) | SMILES
0.012 µM | 0.037 µM | 0.008 µM | > 3 µM | 0.111 µM | 0.007 µM | Cc1nc2ccc(-c3cc(N)nc(N)c3)nc2n1C[C@H](C)Oc1ccccc1 (single isomer, unassigned) [Example 107]
0.03 µM | 0.025 µM | 0.01 µM | > 3 µM | 0.22 µM | 0.015 µM | Cc1nc2ccc(-c3cc(N)nc(N)c3)nc2n1C[C@H]1C[C@@H]1c1ccccc1 (single isomer, unassigned) [Example 109]
0.005 µM | 0.025 µM | 0.006 µM | 2.62 µM | 0.09 µM | 0.014 µM | Cc1nc2ccc(-c3cc(N)nc(N)c3)nc2n1CC1Cc2ccccc21 (single isomer, unassigned) [Example 112, 4-[3-(bicyclo[4.2.0]octa-1,3,5-trien-7-ylmethyl)-2-methyl-3H-imidazo[4,5-b]pyridin-5-yl]pyridine-2,6-diamine]
0.074 µM | 0.083 µM | 0.016 µM | > 3 µM | – | 0.013 µM | Cc1nc2ccc(-c3cc(N)nc(N)c3)nc2n1C[C@H](C)Oc1ccccn1 (single isomer, unassigned) [Example 174]
0.02 µM | 0.04 µM | 0.007 µM | > 3 µM | 0.131 µM | 0.016 µM | Cc1nc2ccc(-c3cc(N)nc(N)c3)nc2n1C[C@@H](C)Oc1ccccn1 (single isomer, unassigned) [Example 175]
0.014 µM | 0.017 µM | 0.005 µM | 0.554 µM | 0.042 µM | 0.005 µM | Cc1nc2ccc(-c3cc(N)nc(N)c3)nc2n1C[C@@H](C)Oc1cccc(Cl)n1 (single isomer, unassigned) [Example 177]
0.006 µM | 0.014 µM | – | – | 0.006 µM | – | Cc1nc2ccc(-c3cc(N)nc(N)c3)nc2n1C1CC(c2ccccc2)C1 (stereo not drawn) [Example 100, 4-[2-methyl-3-(3-phenylcyclobutyl)-3H-imidazo[4,5-b]pyridin-5-yl]pyridine-2,6-diamine]
0.005 µM | 0.019 µM | 0.005 µM | – | 0.039 µM | 0.009 µM | Cc1nc2ccc(-c3cc(N)nc(N)c3)nc2n1CC1Cc2ccccc2C1 [Example 114, 4-[3-(2,3-dihydro-1H-inden-2-ylmethyl)-2-methyl-3H-imidazo[4,5-b]pyridin-5-yl]pyridine-2,6-diamine]
0.009 µM | 0.015 µM | 0.003 µM | – | 0.026 µM | 0.005 µM | Cc1nc2ccc(-c3cc(N)nc(N)c3)nc2n1CCOc1cccc(Cl)n1 [Example 165, 4-(3-{2-[(6-chloropyridin-2-yl)oxy]ethyl}-2-methyl-3H-imidazo[4,5-b]pyridin-5-yl)pyridine-2,6-diamine]
0.011 µM | 0.015 µM | 0.002 µM | – | 0.032 µM | 0.006 µM | Cc1nc2ccc(-c3cc(N)nc(N)c3)nc2n1CCOc1cccc(Br)n1 [Example 168, 4-(3-{2-[(6-bromopyridin-2-yl)oxy]ethyl}-2-methyl-3H-imidazo[4,5-b]pyridin-5-yl)pyridine-2,6-diamine]
0.025 µM | 0.017 µM | – | – | 0.092 µM | – | Cc1nc2ccc(-c3cc(N)nc(N)c3)nc2n1CCOc1ccc(F)cc1 [Example 198, 4-{3-[2-(4-fluorophenoxy)ethyl]-2-methyl-3H-imidazo[4,5-b]pyridin-5-yl}pyridine-2,6-diamine]
0.017 µM | 0.016 µM | – | – | 0.148 µM | – | Cc1nc2ccc(-c3cc(N)nc(N)c3)nc2n1CCOc1ccccc1F [Example 203, 4-{3-[2-(2-fluorophenoxy)ethyl]-2-methyl-3H-imidazo[4,5-b]pyridin-5-yl}pyridine-2,6-diamine]
0.026 µM | 0.021 µM | – | – | 0.12 µM | – | Cc1nc2ccc(-c3cc(N)nc(N)c3)nc2n1CCOc1ccc(Cl)cc1 [Example 207, 4-{3-[2-(4-chlorophenoxy)ethyl]-2-methyl-3H-imidazo[4,5-b]pyridin-5-yl}pyridine-2,6-diamine]
